From ChEMBL document CHEMBL1201862, “PubChem BioAssay data set” (2004)
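Interpolation was linear, between the two tested concentrations surrounding the appropriate level; five concentrations were tested over 48 hours in 96-well plates. GI50: concentration for 50% inhibition of growth.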 The source made the active and inactive calls. Rule as the data show it: active = GI50 up to about 1.1 µM and inactive = higher.

How the values were obtained:
Test in all cases: inhibition of tumour cell growth, NCI panel, 48 h
[1] = test system: 786-0
[2] = test system: A498
[3] = test system: A549
[4] = test system: ACHN
[5] = test system: CAKI-1
[6] = test system: CCRF-CEM
[7] = test system: COLO 205
[8] = test system: DLD-1
[9] = test system: DMS-114
[10] = test system: DMS-273
[11] = test system: EKVX
[12] = test system: HCC 2998
[13] = test system: HCT-116
[14] = test system: HCT-15
[15] = test system: HL-60
[16] = test system: HOP-18
[17] = test system: HOP-62
[18] = test system: HOP-92
[19] = test system: HT-29
[20] = test system: IGROV-1
[21] = test system: K562
[22] = test system: KM-20L2
[23] = test system: KM12
[24] = test system: LOX IMVI
[25] = test system: LXFL 529
[26] = test system: M14
[27] = test system: M19-MEL
[28] = test system: MOLT-4
[29] = test system: Malme-3M
[30] = test system: NCI-H226
[31] = test system: NCI-H23
[32] = test system: NCI-H460
[33] = test system: NCI-H522
[34] = test system: OVCAR-3
[35] = test system: OVCAR-4
[36] = test system: OVCAR-5
[37] = test system: OVCAR-8
[38] = test system: RPMI-8226
[39] = test system: RXF 393
[40] = test system: SF-268
[41] = test system: SF-295
[42] = test system: SF-539
[43] = test system: SK-MEL-28
[44] = test system: SK-MEL-2
[45] = test system: SK-MEL-5
[46] = test system: SK-OV-3
[47] = test system: SN12C
[48] = test system: SNB-19
[49] = test system: SNB-75
[50] = test system: SNB-78
[51] = test system: SR
[52] = test system: SW-620
[53] = test system: TK-10
[54] = test system: U-251
[55] = test system: UACC-257
[56] = test system: UACC-62
[57] = test system: UO-31
[58] = test system: DU-145
[59] = test system: Hs-578T
[60] = test system: MCF7
[61] = test system: MDA-MB-231
[62] = test system: MDA-MB-435
[63] = test system: MDA-N
[64] = test system: NCI/ADR-RES
[65] = test system: PC-3
[66] = test system: T47D

`CCCC(=O)Oc1ccc(/C=N/NC(N)=S)nc1` was tested, and the GI50 [1] was 37 µM (inactive), the GI50 [2] was > 100 µM (inactive) and the GI50 [3] was > 100 µM (inactive). For the same molecule, the GI50 [4] was 35.6 µM (inactive), the GI50 [5] was > 100 µM (inactive) and the GI50 [6] was 25.5 µM (inactive). The GI50 [7] was > 100 µM (inactive), the GI50 [8] was > 100 µM (inactive) and the GI50 [9] was 38.2 µM (inactive). For the same molecule, the GI50 [10] was > 100 µM (inactive), the GI50 [11] was > 100 µM (inactive) and the GI50 [12] was > 100 µM (inactive). The GI50 [13] was > 100 µM (inactive), the GI50 [14] was over 100 µM and the GI50 [15] was 45.1 µM (inactive). For the same molecule, the GI50 [16] was > 100 µM (inactive), the GI50 [17] was > 100 µM (inactive) and the GI50 [18] was > 100 µM (inactive). For the same molecule, the GI50 [19] was > 100 µM (inactive), the GI50 [20] was > 100 µM (inactive) and the GI50 [21] was > 100 µM (inactive). For the same molecule, the GI50 [22] was > 100 µM (inactive), the GI50 [23] was > 100 µM (inactive) and the GI50 [24] was 54.3 µM (inactive). For the same molecule, the GI50 [25] was > 100 µM (inactive), the GI50 [26] was 98.6 µM (inactive) and the GI50 [27] was > 100 µM (inactive). The GI50 [28] was 46.8 µM (inactive), the GI50 [29] was > 100 µM (inactive) and the GI50 [30] was > 100 µM (inactive). For the same molecule, the GI50 [31] was > 100 µM (inactive), the GI50 [32] was > 100 µM (inactive) and the GI50 [33] was 69 µM (inactive). The GI50 [34] was > 100 µM (inactive), the GI50 [35] was > 100 µM (inactive) and the GI50 [36] was > 100 µM (inactive). For the same molecule, the GI50 [37] was 41.8 µM (inactive), the GI50 [38] was > 100 µM (inactive) and the GI50 [39] was > 100 µM (inactive). The GI50 [40] was 60 µM (inactive), the GI50 [41] was > 100 µM (inactive) and the GI50 [42] was 36.5 µM (inactive). For the same molecule, the GI50 [43] was > 100 µM (inactive), the GI50 [44] was > 100 µM (inactive) and the GI50 [45] was > 100 µM (inactive). For the same molecule, the GI50 [46] was > 100 µM (inactive), the GI50 [47] was > 100 µM (inactive) and the GI50 [48] was > 100 µM (inactive). The GI50 [49] was > 100 µM (inactive), the GI50 [50] was > 100 µM (inactive) and the GI50 [51] was 30 µM (inactive). The GI50 [52] was > 100 µM (inactive), the GI50 [53] was > 100 µM (inactive) and the GI50 [54] was > 100 µM (inactive). For the same molecule, the GI50 [55] was > 100 µM (inactive), the GI50 [56] was 64.1 µM (inactive) and the GI50 [57] was 60.1 µM (inactive).
For `BrCc1ccc2ccc3ccc(CBr)nc3c2n1`, the GI50 [1] was 2.51 µM (inactive), the GI50 [2] was 2.64 µM (inactive) and the GI50 [3] was 13.3 µM (inactive). The GI50 [4] was 2.1 µM (inactive), the GI50 [5] was 3.55 µM (inactive) and the GI50 [6] was 0.995 µM (active). The GI50 [7] was 1.92 µM (inactive), the GI50 [9] was 3.85 µM (inactive) and the GI50 [10] was 1.77 µM (inactive). For the same molecule, the GI50 [58] was 8.18 µM (inactive), the GI50 [11] was 9.59 µM (inactive) and the GI50 [12] was 2.86 µM (inactive). The GI50 [13] was 2.34 µM (inactive), the GI50 [14] was 2.01 µM and the GI50 [15] was 1.38 µM (inactive). The GI50 [16] was 1.83 µM (inactive), the GI50 [17] was 7 µM (inactive) and the GI50 [18] was 2.06 µM (inactive). For the same molecule, the GI50 [19] was 1.95 µM (inactive), the GI50 [59] was 17.9 µM (inactive) and the GI50 [20] was 4.01 µM (inactive). The GI50 [21] was 2.53 µM (inactive), the GI50 [22] was 3.28 µM (inactive) and the GI50 [23] was 3.61 µM (inactive). The GI50 [24] was 1.58 µM (inactive), the GI50 [25] was 1.75 µM (inactive) and the GI50 [26] was 2.85 µM (inactive). For the same molecule, the GI50 [27] was 3.86 µM (inactive), the GI50 [60] was 1.88 µM (inactive) and the GI50 [61] was 1.62 µM (inactive). For the same molecule, the GI50 [62] was 4.12 µM (inactive), the GI50 [63] was 2.74 µM (inactive) and the GI50 [28] was 1.65 µM (inactive). The GI50 [30] was 5.92 µM (inactive), the GI50 [31] was 5.61 µM (inactive) and the GI50 [32] was 4.23 µM (inactive). For the same molecule, the GI50 [64] was 1.86 µM (inactive), the GI50 [34] was 1.72 µM (inactive) and the GI50 [35] was 3.5 µM (inactive). The GI50 [36] was 9.44 µM (inactive), the GI50 [37] was 4.73 µM (inactive) and the GI50 [65] was 1.79 µM (inactive). The GI50 [38] was 0.887 µM (active), the GI50 [39] was 2.24 µM (inactive) and the GI50 [40] was 3.27 µM (inactive). For the same molecule, the GI50 [41] was 10.4 µM (inactive), the GI50 [42] was 4.67 µM (inactive) and the GI50 [43] was 2.81 µM (inactive). For the same molecule, the GI50 [44] was 3.12 µM (inactive), the GI50 [45] was 2.77 µM (inactive) and the GI50 [46] was 3.08 µM (inactive). For the same molecule, the GI50 [47] was 2 µM (inactive), the GI50 [48] was 12.7 µM (inactive) and the GI50 [49] was 1.32 µM (inactive). The GI50 [50] was 2.13 µM (inactive), the GI50 [51] was 1.87 µM (inactive) and the GI50 [52] was 2.2 µM (inactive). The GI50 [66] was 1.42 µM (inactive), the GI50 [53] was 2.57 µM (inactive) and the GI50 [54] was 5.56 µM (inactive). For the same molecule, the GI50 [55] was 3.18 µM (inactive), the GI50 [56] was 3.26 µM (inactive) and the GI50 [57] was 2.12 µM (inactive).
